Assay results reported in patent US11406644B2, “Tropomyosin-related kinase (TRK) inhibitors” (Genzyme Corporation, priority 2013, dated 2022).
Counter-ions that a name gives are not always drawn. Values belong to the compound of their own block, whether it stands above or below them.

What was measured:
[1] = test system: Male Lewis rats with PGPS knee arthritis; test: Reactivated peptidoglycan-polysaccharide (PGPS) knee arthritis; format: in vivo, rat
Excerpt: Male Lewis rats were acclimated to the testing facility for 7 days. The rats were housed in 5 per cage in shoe-box polycarbonate cages with wire tops, wood chip bedding and suspended food and water bottles.
On day −21, the male Lewis rats were randomized into treatment groups by body weight. The rats were anesthetized and injected with peptidoglycan-polysaccharide (PGPS) into the right knee to induce PGPS arthritis. Arthritis was reactivated on days 0 and 14 by an IV tail injection of PGPS.
The rats were weighed at baseline on days 0, 4, 14 and 18. Knee thickness was measured by caliper at baseline and on days 0, 2, 4, 14, 16 and 18. Gait analysis occurred on days 0-4 and 14-18, with video recording of selected animals on days 3 and 17. Gait analysis was performed by applying ink to the ventral surface of the foot and documenting weight bearing during movement across paper.
The animals were terminated at day 18. Right knees were removed, trimmed of extraneous tissue, and collected into 10% neutral buffered formalin. After two days in the formalin buffer and three days in 10% formic acid decalcifier, the knees were cut into two approximately equal halves in the frontal plane and processed for paraffin embedding and stained with T. Blue. Histological examinations were subsequently performed for bone resorption, inflammation, pannus and cartilage damage.
Body weights, gait deficiency and caliper measurements were analyzed using a one-way analysis of variance (1-way ANOVA) with Dunnett's multiple comparison post-test. Gait scores were analyzed using a Kruskal-Wallis test (non-parametric ANOVA) with Dunn's multiple comparison post-test. Histopathology scores were analyzed using a Kruskal-Wallis test (non-parametric ANOVA) with Dunn's multiple comparison post-test.

[2] = test system: Male Wistar rats with MIA induced osteoarthritis; test: Monosodium iodoacetate (MIA) induced osteoarthritis; format: in vivo, rat; conditions: for MIA/LRS placebo group compared with treated group at day 35: p<0.05
Excerpt: Male Wistar rats were acclimated to the testing facility for 5 days. The rats were individually housed in micro-isolator shoe-box polycarbonate cages with cob bedding and water bottles. Dry pelleted food of known composition and nutritional components was provided ad libitum
Animals were randomized by treatment type using an online random number generator. Each treatment group was assigned a number, entered into the random number generator, recorded then translated back to the associated treatment. All injections were given in the left leg unless the treatment indicated “Contralateral” in which case the injection was given in the right leg. Both legs were shaved on all animals at the time of the treatment injections to blind the test administrator.
The rats were weighed the day prior to injection with monosodium iodoacetate (MIA), the agent used to induce osteoarthritis in the animals. The day of injection, rats from groups 2-8 received a subcutaneous (SC) dose of buprenorphine at least one hour prior to induction. […] Naïve animals were then placed in recovery. All other animals received an injection of MIA. In animals receiving MIA, the hind leg was flexed and an injection of MIA (25 μL) was injected into the intra-articular space using a 27 gauge ½ Inch Needle. Standard postoperative care was performed (twice daily for 48 hours).
On Day 8 the test article was administered as described above. On Days −1, 7, 14, 21, 28, and 35 post-induction, weight bearing was assessed. A weight bearing scale was utilized using a plexiglass chamber to assess the amount of weight distributed in each hind limb. The animals were acclimated to the chamber for at least 5 minutes prior to testing and the weight distribution was recorded 5 times.
The animals were terminated at day 36. Both stifles were collected from each animal; the skin was removed from the joint and the patella was removed while leaving as much of the fat pad intact with the joint. The stifle was placed in the appropriate cassette with rolled gauze to secure the stifle in the cassette and then placed into 4% Paraformaldehyde. These samples were examined histologically.

TrkB = TrkB (Homo sapiens (Human), UniProt Q16620); test: TrkB activity, off-chip mobility shift assay (LabChip 3000); format: biochemical; conditions: 300 pM TrkB, 70 μM ATP (ATP Km)
Excerpt: (§1) Reagents and consumables were purchased from Sigma Aldrich, Carna Biosciences, or Caliper Life Sciences. All assay reaction conditions for IC50 determinations were within the linear range with respect to time and enzyme concentration. […] The LabChip 3000 separates and measures the fluorescent signal of fluorescein labeled peptide substrate and fluorescein labeled peptide product present in each well. Results are expressed as percent conversion by measuring peak height for both the substrate and product and dividing the product peak height by the sum of peak heights for both substrate and product.

TrkA = TrkA (Homo sapiens (Human), UniProt P04629); test: TrkA activity, off-chip mobility shift assay (LabChip 3000); format: biochemical; conditions: 200 pM TrkA, 55 μM ATP (ATP Km)
Excerpt: as §1

[3] = 0.06 mg intra-articular on day −7

Sequence of TrkB (Q16620 456-822): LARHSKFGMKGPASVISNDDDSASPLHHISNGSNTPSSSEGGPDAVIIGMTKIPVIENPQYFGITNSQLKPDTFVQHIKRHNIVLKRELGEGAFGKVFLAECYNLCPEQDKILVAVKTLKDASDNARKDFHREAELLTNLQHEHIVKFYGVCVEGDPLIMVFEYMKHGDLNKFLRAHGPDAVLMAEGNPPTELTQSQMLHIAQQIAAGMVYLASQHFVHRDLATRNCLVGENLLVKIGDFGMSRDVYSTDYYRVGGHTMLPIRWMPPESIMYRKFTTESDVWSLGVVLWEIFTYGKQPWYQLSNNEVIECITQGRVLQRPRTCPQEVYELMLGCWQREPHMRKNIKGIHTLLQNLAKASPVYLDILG
Sequence of TrkA (P04629 442-796): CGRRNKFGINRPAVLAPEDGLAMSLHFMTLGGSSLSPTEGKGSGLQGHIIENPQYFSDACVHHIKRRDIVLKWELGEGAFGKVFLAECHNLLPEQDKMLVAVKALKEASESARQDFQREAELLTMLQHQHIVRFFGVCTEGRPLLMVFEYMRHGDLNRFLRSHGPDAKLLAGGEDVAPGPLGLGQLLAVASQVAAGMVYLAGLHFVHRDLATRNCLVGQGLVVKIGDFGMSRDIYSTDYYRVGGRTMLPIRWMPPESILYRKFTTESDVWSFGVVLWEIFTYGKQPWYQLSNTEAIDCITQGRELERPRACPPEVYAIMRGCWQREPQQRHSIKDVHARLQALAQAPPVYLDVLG

Compound: COc1ccc(COc2ccc(Cn3c(N)nc4cc(-c5cnn(C)c5)cnc43)cc2OC)cc1 [Ex. 3-15, 3-(3-Methoxy-4-((4-methoxybenzyl)oxy)benzyl)-6-(1-methyl-1H-pyrazol-4-yl)-3H-imidazo[4,5-b]pyridin-2-amine]
knee caliper AUC values ([1]; 1 mg intra-articular on day −7): generally unaffected | reduction of gait AUC values (scores and deficiency), first reactivation ([1]; 1 mg intra-articular on day −7): 92-93% | reduction of gait AUC values (scores and deficiency), second reactivation ([1]; 1 mg intra-articular on day −7): 85-86% | knee caliper measurements ([1]; 1 mg intra-articular on day −7, day 14 (just prior to second reactivation)): significantly reduced | reductions in gait deficiency, second reactivation ([1]; 1 mg intra-articular on day −7, days 15, 17 and 18): significant | gait scores and deficiency, first reactivation ([1]; 1 mg intra-articular on day −7, throughout first reactivation): significant reductions | gait scores, second reactivation ([1]; 1 mg intra-articular on day −7, throughout second reactivation): significantly reduced | efficacy (weight bearing) ([2]; 10 μg Contralateral injection): efficacy at 3 and 4 weeks | efficacy (weight bearing) ([2]; 10 μg Ipsilateral injection): efficacy was observed at 2 through 4 weeks | efficacy (weight bearing) ([2]; 30 μg Contralateral injection): efficacy at only the 3 week timepoint | efficacy (weight bearing) ([2]; 30 μg Ipsilateral injection): effective throughout the four weeks following administration | MIA/LRS placebo group compared with treated group at day 35 ([2]; 30 μg Ipsilateral): significantly worse | systemic pain relief (weight bearing) ([2]; 100 μg Contralateral injection, 1-4 weeks): did not show systemic pain relief at any timepoint | efficacy (weight bearing) ([2]; 100 μg Ipsilateral injection): effective throughout the four weeks following administration | MIA/LRS placebo group compared with treated group at day 35 ([2]; 100 μg Ipsilateral): significantly worse | body weight results, adverse observations due to treatment ([2]; intra-articular 10-100 μg on day 8): No adverse observations | histopathology of knee joint, adverse changes ([2]; stifles collected at day 36): no adverse changes

IC50 (TrkB): 610 nM
Compound: COc1ccc(-c2cnc3c(c2)ncn3Cc2ccc(OC(C)c3ccc(OC)nc3)c(OC)c2)cn1 (centres unmarked) [Ex. 3-58-2, 3-(3-methoxy-4-(1-(6-methoxypyridin-3-yl)ethoxy)benzyl)-6-(6-methoxypyridin-3-yl)-3H-imidazo[4,5-b]pyridine formate]

Compound: C[C@]12C=CC(=O)C=C1CC[C@H]1[C@@H]3C[C@@H](O)[C@](O)(C(=O)CO)[C@@]3(C)C[C@H](O)[C@@]12F [Triamcinolone, reference compound]
reduction of gait AUC values, each reactivation calculated separately [1, 3]: 74-99% | reduction of gait AUC values, summed [1, 3]: 88-92% | reductions in knee caliper AUC [1, 3]: 53-106%

Compound: COc1ccc(COc2ccc(Cn3cnc4cc(-c5cnn(C6CCNCC6)c5)ccc43)cc2OC)cn1 [Ex. 3-5]
IC50 (TrkA): 6 nM | IC50 (TrkB): 5 nM
